PubChem BioAssay (NCI)
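Method: 48-hour compound exposure of cells in 96-well plates, five concentrations, linear interpolation of endpoints. Definition used: TGI = concentration required for complete inhibition of growth.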

Tests used:
Experiment in all cases: inhibition of tumour cell growth, NCI panel, 48 h
786-0 renal = tested on: 786-0 renal
A498 renal = tested on: A498 renal
A549 NSCLC = tested on: A549 NSCLC
ACHN renal = tested on: ACHN renal
BT-549 breast = tested on: BT-549 breast
CAKI-1 renal = tested on: CAKI-1 renal
CCRF-CEM leukemia = tested on: CCRF-CEM leukemia
COLO 205 colon = tested on: COLO 205 colon
DU-145 prostate = tested on: DU-145 prostate
EKVX NSCLC = tested on: EKVX NSCLC
HCC-2998 colon = tested on: HCC-2998 colon
HCT-116 colon = tested on: HCT-116 colon
HCT-15 colon = tested on: HCT-15 colon
HL-60(TB) leukemia = tested on: HL-60(TB) leukemia
HOP-62 NSCLC = tested on: HOP-62 NSCLC
HOP-92 NSCLC = tested on: HOP-92 NSCLC
HS 578T breast = tested on: HS 578T breast
HT29 colon = tested on: HT29 colon
IGROV1 ovarian = tested on: IGROV1 ovarian
K-562 leukemia = tested on: K-562 leukemia
KM12 colon = tested on: KM12 colon
LOX IMVI melanoma = tested on: LOX IMVI melanoma
M14 melanoma = tested on: M14 melanoma
MALME-3M melanoma = tested on: MALME-3M melanoma
MCF7 breast = tested on: MCF7 breast
MDA-MB-231 breast = tested on: MDA-MB-231 breast
MDA-MB-435 = tested on: MDA-MB-435
MDA-N = tested on: MDA-N
MOLT-4 leukemia = tested on: MOLT-4 leukemia
NCI-H226 lung = tested on: NCI-H226 lung
NCI-H23 lung = tested on: NCI-H23 lung
NCI-H460 lung = tested on: NCI-H460 lung
NCI-H522 lung = tested on: NCI-H522 lung
NCI/ADR-RES ovarian = tested on: NCI/ADR-RES ovarian
OVCAR-3 ovarian = tested on: OVCAR-3 ovarian
OVCAR-4 ovarian = tested on: OVCAR-4 ovarian
OVCAR-5 ovarian = tested on: OVCAR-5 ovarian
OVCAR-8 ovarian = tested on: OVCAR-8 ovarian
PC-3 prostate = tested on: PC-3 prostate
RPMI-8226 leukemia = tested on: RPMI-8226 leukemia
RXF 393 renal = tested on: RXF 393 renal
SF-268 CNS = tested on: SF-268 CNS
SF-295 CNS = tested on: SF-295 CNS
SF-539 CNS = tested on: SF-539 CNS
SK-MEL-2 melanoma = tested on: SK-MEL-2 melanoma
SK-MEL-28 melanoma = tested on: SK-MEL-28 melanoma
SK-MEL-5 melanoma = tested on: SK-MEL-5 melanoma
SK-OV-3 ovarian = tested on: SK-OV-3 ovarian
SN12C renal = tested on: SN12C renal
SNB-19 CNS = tested on: SNB-19 CNS
SNB-75 CNS = tested on: SNB-75 CNS
SR leukemia = tested on: SR leukemia
SW-620 colon = tested on: SW-620 colon
T-47D breast = tested on: T-47D breast
TK-10 renal = tested on: TK-10 renal
U251 CNS = tested on: U251 CNS
UACC-257 melanoma = tested on: UACC-257 melanoma
UACC-62 melanoma = tested on: UACC-62 melanoma
UO-31 renal = tested on: UO-31 renal

Measured: TGI

O=C1c2ccccc2C(=O)N1[C@@H](Cc1ccccc1)C(=O)n1cccc1CO
56.6 µM: RXF 393 renal
> 100 µM: all other assays above
